Results on one substance are retold here after patent publication US20200246403A1, “YEAST EXTRACT HAVING DIABETES PREVENTION EFFECT” (MITSUBISHI CORPORATION LIFE SCIENCES LIMITED, priority 2016, published 2020).

This experiment has as its system rat myoblasts (L6 cells). The experiment in a line: Measurement of glucose uptake activity in rat myoblasts (L6 cells), 2-NBDG fluorescence. It counts as cell-based. As to conditions: insulin final concentration 100 nM (positive control), 100 μM 2-NBDG, 20 minutes. How it is done: Test 1: Measurement of Glucose Uptake Activity in Rat Myoblasts (L6 Cells)
L6 cells were seeded (1×10^4 cells/well) in a 96-well plate with a D-MEM medium (Dulbecco/Vogt modified Eagle's minimal essential medium) containing 10% fetal bovine serum, and pre-cultured for 48 hours (5% CO2, 37° C.) Then, the medium was replaced with a D-MEM medium containing 2% horse serum and culture was performed for 96 hours (5% CO2, 37° C.) to induce differentiation. Subsequently, the medium was replaced with a serum-free D-MEM medium, and synchronous culture was performed for 4 hours (5% CO2, 37° C.). Thereafter, the wells were washed with a KRPH buffer (Krebs Ringer Phosphate Hepes buffer), and 100 μL of a sample solution (final concentration 1 mg/mL or 5 mg/mL) dissolved in a KRPH buffer containing 100 μM 2-NBDG (2-deoxy-2-[(7-nitro-2,1,3-benzoxadiazol-4-yl)amino]-D-glucose) was added and incubated for 20 minutes (5% […], 37° C.). […] The fluorescence intensity of 2-NBDG, as the fluorescent glucose analogue incorporated into the cells, was measured at an excitation wavelength of 470 nm and a detection wavelength of 550 nm using a microplate reader. The glucose uptake activity was determined based on the following formula as the ratio of the fluorescence intensity (FS) in the case of making the sample solution react when the fluorescence intensity (FC) of the control was taken as 100. […]

Regarding insulin, the Glucose uptake activity entry was “significantly increased”.
